Structures are written as SMILES. pIC50: −log10 of the molar value. A value given as a limit tells only on which side of the number the result lay.

As usually defined, the pIC50 is the IC50 on a negative log10 scale, so that one unit is a factor of ten. A lower pIC50 goes with a large IC50.

Chain of Eukaryotic translation initiation factor 4 gamma 1 (Q04637 whole entry): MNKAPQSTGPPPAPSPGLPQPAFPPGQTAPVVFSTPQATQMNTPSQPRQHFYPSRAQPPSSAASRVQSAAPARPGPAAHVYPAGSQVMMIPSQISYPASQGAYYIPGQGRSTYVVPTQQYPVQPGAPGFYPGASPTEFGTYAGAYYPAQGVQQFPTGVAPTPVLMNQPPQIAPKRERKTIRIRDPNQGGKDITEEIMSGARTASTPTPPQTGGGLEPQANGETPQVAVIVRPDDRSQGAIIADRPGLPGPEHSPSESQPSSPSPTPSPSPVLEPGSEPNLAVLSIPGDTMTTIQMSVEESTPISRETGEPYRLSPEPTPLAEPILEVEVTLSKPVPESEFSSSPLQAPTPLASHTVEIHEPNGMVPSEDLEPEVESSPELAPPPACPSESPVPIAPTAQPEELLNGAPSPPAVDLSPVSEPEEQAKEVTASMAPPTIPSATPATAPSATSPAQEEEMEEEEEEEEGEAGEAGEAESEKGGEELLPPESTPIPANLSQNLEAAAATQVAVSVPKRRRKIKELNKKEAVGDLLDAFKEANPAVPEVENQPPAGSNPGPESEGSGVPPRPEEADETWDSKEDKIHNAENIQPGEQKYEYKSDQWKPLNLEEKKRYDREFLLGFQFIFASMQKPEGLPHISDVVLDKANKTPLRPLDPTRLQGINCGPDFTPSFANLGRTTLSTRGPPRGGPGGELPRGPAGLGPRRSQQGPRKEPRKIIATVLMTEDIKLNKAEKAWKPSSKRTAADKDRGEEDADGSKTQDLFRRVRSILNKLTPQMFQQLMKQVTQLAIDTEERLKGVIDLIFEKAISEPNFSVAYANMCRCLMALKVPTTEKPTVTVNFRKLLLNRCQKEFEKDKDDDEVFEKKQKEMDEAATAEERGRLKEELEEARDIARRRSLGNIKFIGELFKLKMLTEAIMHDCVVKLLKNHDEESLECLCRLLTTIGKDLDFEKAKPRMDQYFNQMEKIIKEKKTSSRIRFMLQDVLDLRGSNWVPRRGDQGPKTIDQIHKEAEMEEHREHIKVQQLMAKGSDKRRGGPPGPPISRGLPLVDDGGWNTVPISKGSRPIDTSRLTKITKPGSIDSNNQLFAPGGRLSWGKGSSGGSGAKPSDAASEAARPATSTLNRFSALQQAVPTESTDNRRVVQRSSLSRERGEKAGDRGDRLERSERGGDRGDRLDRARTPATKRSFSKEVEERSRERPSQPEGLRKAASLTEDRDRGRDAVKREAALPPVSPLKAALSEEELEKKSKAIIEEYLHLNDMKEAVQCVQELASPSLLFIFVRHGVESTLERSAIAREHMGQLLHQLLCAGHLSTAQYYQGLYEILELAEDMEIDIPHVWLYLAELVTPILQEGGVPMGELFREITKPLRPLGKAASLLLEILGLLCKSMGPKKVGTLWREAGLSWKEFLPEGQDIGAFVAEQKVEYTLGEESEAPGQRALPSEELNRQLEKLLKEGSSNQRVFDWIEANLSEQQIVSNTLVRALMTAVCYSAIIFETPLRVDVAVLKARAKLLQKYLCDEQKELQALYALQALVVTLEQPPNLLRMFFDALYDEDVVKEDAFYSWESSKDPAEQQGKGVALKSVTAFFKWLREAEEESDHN

This experiment has as its target Eukaryotic translation initiation factor 4 gamma 1 (Homo sapiens, UniProt Q04637). In words: eIF4E–eIF4G protein interaction inhibitors, dose response, biochemical, TR-FRET (AID 855).
In turn, `O=C1Nc2ccc([N+](=O)[O-])cc2/C1=N/NC(=O)c1cc(-c2ccccc2Cl)nc2ccccc12` [2-(2-chlorophenyl)-N'-(2-keto-5-nitro-indol-3-yl)cinchoninohydrazide] had a negative logarithm of the IC50 (pIC50) of less than 4.19. The same measure for `COc1ccc(Cn2c(Nc3cc(Cl)ccc3OC)c3[nH]cccc-3c2=O)cc1` [7-[(5-chloranyl-2-methoxy-phenyl)amino]-6-[(4-methoxyphenyl)methyl]-7H-pyrrolo[3,4-b]pyridin-5-one]: 4.84; for `Cc1ccc(-n2c(C)cc(CN=Nc3ccc([N+](=O)[O-])cn3)c2C)cc1` [MLS000552475]: less than 4.19; for `Cc1ccc(/C=C/C(=O)C2=C(O)N(C)C3(C)CC2c2ccccc2O3)cc1` (configuration not stated) [MLS000519940]: less than 4.19. Then `COc1ccc(Cc2c(O)n(-c3ccccc3)c(=O)[nH]c2=O)c(OC)c1`, with less than 4.19; and `CC(=O)C1=C(C)N=C(SCc2ccc(C#N)cc2)C(C#N)C1c1ccco1` (configuration not stated) [5-acetyl-2-[(4-cyanophenyl)methylsulfanyl]-4-(furan-2-yl)-6-methyl-1,4-dihydropyridine-3-carbonitrile], with less than 4.19; and `Cc1ccccc1C(=O)Nc1cccc(C(=O)N/N=C/C2C=C(Cl)C=C([N+](=O)[O-])C2=O)c1` (configuration not stated) [N-(3-{[(2E)-2-(5-chloro-2-hydroxy-3-nitrobenzylidene)hydrazino]carbonyl}phenyl)-2-methylbenzamide], with 4.30. Then `CN(C)[C@@H]1C(=O)C(C(N)=O)C(=O)[C@@]2(O)C(=O)C3C(=O)c4c(O)cccc4[C@@](C)(O)[C@H]3[C@H](O)[C@@H]12` (stereo partly drawn) [(2E,4S,4aR,5S,5aR,6S,12aS)-2-[azanyl(oxidanyl)methylidene]-4-(dimethylamino)-6-methyl-5,6,10,11,12a-pentakis(oxidanyl)-4,4a,5,5a-tetrahydrotetracene-1,3,12-trione], with 4.30.

Compound `CC(C)(C)c1[nH]nc2c1C(c1ccc(OC(=O)c3ccco3)cc1)C(C#N)C(=N)O2` (configuration not stated) [2-furancarboxylic acid [4-(6-amino-3-tert-butyl-5-cyano-2,4-dihydropyrano[2,3-c]pyrazol-4-yl)phenyl] ester] gave a pIC50 of less than 4.19. The same measure for `CC(=O)C1=C(c2ccccc2)OC(=N)C(C#N)C1c1ccc(O)cc1` (configuration not stated) [2-azanyl-5-ethanoyl-4-(4-hydroxyphenyl)-6-phenyl-4H-pyran-3-carbonitrile]: less than 4.19. Then `C[N+](C)(C)c1ccc(CN=Nc2nc(Cl)c(C#N)c(Cl)c2Cl)cc1` [trimethyl-[4-[[(3,4,6-trichloro-5-cyanopyridin-2-yl)hydrazinylidene]methyl]phenyl]azanium;iodide], with less than 4.19. Then `Cc1ccc(Nc2c3[nH]cccc-3c(=O)n2-c2ccccc2C)cc1C` [SMR000028201], with 5.02; and `COc1ccc(-c2cnnc(N=NCc3ccc(-c4ccc([N+](=O)[O-])cc4)o3)n2)cc1`, with 4.30.

As for `O=C1CCCC(=O)C1C(C#Cc1ccccc1)C1C(=O)CCCC1=O` [3-hydroxy-2-[1-(2-hydroxy-6-keto-cyclohexen-1-yl)-3-phenyl-prop-2-ynyl]cyclohex-2-en-1-one], the pIC50 is less than 4.19. Then `Oc1cc(N2CCN(Cc3ccc4c(c3)OCO4)CC2)c(O)n1-c1cccc(Cl)c1` [1-(3-chlorophenyl)-3-(4-piperonylpiperazino)pyrrolidine-2,5-quinone], with less than 4.19; and `COc1cc(C2C(C(=O)c3ccccc3)C(=O)C(=O)N2c2ccccn2)ccc1O` (configuration not stated) [(4Z)-5-(3-methoxy-4-oxidanyl-phenyl)-4-[oxidanyl(phenyl)methylidene]-1-pyridin-2-yl-pyrrolidine-2,3-dione], with 4.30; and `CSc1ccc(CN=Nc2cccc(C(=O)O)c2)cc1` [3-[(N'E)-N'-[4-(methylthio)benzylidene]hydrazino]benzoic acid], with 4.30.

Take `CN(C)[C@@H]1C(=O)C(C(=O)NCN2CCCC2)C(=O)[C@@]2(O)C(=O)C3C(=O)c4c(O)cccc4[C@@](C)(O)C3CC12` (stereo partly drawn) [(2Z,4S,6S,12aS)-4-(dimethylamino)-6,10,11,12a-tetrahydroxy-2-[hydroxy-(1-pyrrolidinylmethylamino)methylidene]-6-methyl-4,4a,5,5a-tetrahydrotetracene-1,3,12-trione]: the pIC50 was 4.91.

Compound `O=NCC(=O)Nc1ccc(F)cc1` [MLS000036190] gave a pIC50 of less than 4.19. The same measure for `O=C1N=C(Nc2ccc(O)cc2)SC1=C1C(=O)Nc2ccccc21` [(5Z)-2-[(4-hydroxyphenyl)amino]-5-(2-oxidanylidene-1H-indol-3-ylidene)-1,3-thiazol-4-one]: 4.30; for `O=C1C=CC(CN=Nc2nccs2)C=C1[N+](=O)[O-]` (configuration not stated) [(4Z)-2-nitro-4-[(2-thiazolylhydrazo)methylidene]-1-cyclohexa-2,5-dienone]: 4.97. The same measure for `Cc1cc(CN=Nc2ccc([N+](=O)[O-])cn2)c(C)n1-c1ccc(C(=O)O)cc1` [4-{2,5-dimethyl-3-[2-(5-nitro-2-pyridinyl)carbonohydrazonoyl]-1H-pyrrol-1-yl}benzoic acid]: 4.30; for `C=c1cc2[nH]c(=O)c(=Cc3cc(C)n(-c4ccccc4)c3C)c(=N)n2o1`: less than 4.19. The same measure for `O=[N+]([O-])c1cc(Br)c(O)c(CN=Nc2nnnn2-c2cccc3ccccc23)c1` [(6E)-2-bromo-6-[[2-(1-naphthalen-1-yltetrazol-5-yl)hydrazinyl]methylidene]-4-nitrocyclohexa-2,4-dien-1-one]: less than 4.19; for `O=C1CCCC2=Nc3[nH]c(=S)[nH]c(=O)c3C(c3ccc(Br)cc3)C12` (configuration not stated) [5-(4-bromophenyl)-2-thioxo-2,3,5,8,9,10-hexahydropyrimido[4,5-b]quinoline-4,6(1H,7H)-dione]: less than 4.19; for `NC(=NNC=c1ccc(=C2C=CC(=O)C(C(=O)O)=C2)o1)N[N+](=O)[O-]` [5-(5-{2-[amino(nitroimino)methyl]carbonohydrazonoyl}-2-furyl)-2-hydroxybenzoic acid]: 4.20. Compound `COc1ccc2nc(N3C(=O)C(=C4C(=O)Nc5ccccc54)NC3=S)sc2c1` [(3Z)-3-[1-(6-methoxy-1,3-benzothiazol-2-yl)-5-oxidanylidene-2-sulfanylidene-imidazolidin-4-ylidene]-1H-indol-2-one] gave a pIC50 of less than 4.19.
